Results published in PubChem BioAssay (NCI).
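Assay format: 96-well plates, 48-hour exposure. Here, GI50 denotes the concentration required for 50% inhibition of growth. TGI is the concentration that stops growth completely.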

Key:
Assay in all cases: NCI anticancer screen, dose series, 48 h
SK-MEL-5 melanoma = test system: SK-MEL-5 melanoma
SF-539 CNS = test system: SF-539 CNS
786-0 renal = test system: 786-0 renal
SNB-75 CNS = test system: SNB-75 CNS
UACC-62 melanoma = test system: UACC-62 melanoma
OVCAR-3 ovarian = test system: OVCAR-3 ovarian
LOX IMVI melanoma = test system: LOX IMVI melanoma
RPMI-8226 leukemia = test system: RPMI-8226 leukemia
NCI-H226 lung = test system: NCI-H226 lung
CAKI-1 renal = test system: CAKI-1 renal
A549 NSCLC = test system: A549 NSCLC
MALME-3M melanoma = test system: MALME-3M melanoma
NCI/ADR-RES ovarian = test system: NCI/ADR-RES ovarian
T-47D breast = test system: T-47D breast
OVCAR-5 ovarian = test system: OVCAR-5 ovarian
MCF7 breast = test system: MCF7 breast
MDA-MB-435 = test system: MDA-MB-435
UACC-257 melanoma = test system: UACC-257 melanoma
NCI-H23 lung = test system: NCI-H23 lung
HS 578T breast = test system: HS 578T breast
HCT-15 colon = test system: HCT-15 colon
SNB-19 CNS = test system: SNB-19 CNS
HCT-116 colon = test system: HCT-116 colon
HCC-2998 colon = test system: HCC-2998 colon
HT29 colon = test system: HT29 colon
A498 renal = test system: A498 renal
EKVX NSCLC = test system: EKVX NSCLC
NCI-H460 lung = test system: NCI-H460 lung
SK-MEL-2 melanoma = test system: SK-MEL-2 melanoma

## CCOC(=O)c1ccc2c(c1)[n+](=O)c(C(=O)C1CCCS1)c(C(F)(F)F)n2[O-] (stereo not drawn)
SK-MEL-5 melanoma
  GI50: 964 nM
  TGI: 2310 nM
SF-539 CNS
  GI50: 722 nM
  TGI: 2040 nM
786-0 renal
  GI50: 406 nM
  TGI: 1460 nM
SNB-75 CNS
  GI50: 1130 nM
  TGI: 2330 nM
UACC-62 melanoma
  GI50: 1150 nM
  TGI: 2450 nM
OVCAR-3 ovarian
  GI50: 275 nM
  TGI: 713 nM
LOX IMVI melanoma
  GI50: 161 nM
  TGI: 308 nM
RPMI-8226 leukemia
  GI50: 702 nM
  TGI: 2080 nM
NCI-H226 lung
  GI50: 835 nM
  TGI: 2650 nM
CAKI-1 renal
  GI50: 189 nM
  TGI: 429 nM
A549 NSCLC
  GI50: 274 nM
  TGI: 764 nM
MALME-3M melanoma
  GI50: 581 nM
  TGI: 1980 nM
NCI/ADR-RES ovarian
  GI50: 271 nM
  TGI: 797 nM
T-47D breast
  GI50: 493 nM
  TGI: 1920 nM
OVCAR-5 ovarian
  GI50: 1420 nM
  TGI: 2760 nM
MCF7 breast
  GI50: 261 nM
  TGI: 738 nM
MDA-MB-435
  GI50: 330 nM
  TGI: 987 nM
UACC-257 melanoma
  GI50: 474 nM
  TGI: 1600 nM
NCI-H23 lung
  GI50: 830 nM
  TGI: 2200 nM
HS 578T breast
  GI50: 2120 nM
  TGI: 6350 nM
HCT-15 colon
  GI50: 264 nM
  TGI: 824 nM
SNB-19 CNS
  GI50: 1250 nM
  TGI: 2570 nM
HCT-116 colon
  GI50: 173 nM
  TGI: 340 nM
HCC-2998 colon
  GI50: 675 nM
  TGI: 2000 nM
HT29 colon
  GI50: 172 nM
  TGI: 320 nM
A498 renal
  GI50: 1550 nM
  TGI: 3070 nM
EKVX NSCLC
  GI50: 1190 nM
  TGI: 2610 nM
NCI-H460 lung
  GI50: 236 nM
  TGI: 588 nM
SK-MEL-2 melanoma
  GI50: 1600 nM
  TGI: 3160 nM
